Our source for the Activity, Tmax and inhibition values is ChEMBL document CHEMBL6177981, “Bardoxolone Derivatives as Novel Pseudo-Natural Necroptosis Inhibitors by Destabilizing HSP90 Client Proteins” (J Med Chem, 2025).

Calls of active or inactive are those of the source. The calls are words filed in the database; no cut-off is given here.

For data set [1], the system named is RAW264.7. Nature of the data set: Anti-necroptotic activity in LZ-induced mouse RAW264.7 cells assessed as increase in cell viability preincubated with compound followed by LPS and Z-VAD-FMK stimulation and measured after 16 hrs by CellTiter-Lumi luminescent cell viability assay. Format: functional, cell-based.
For data set [2], the system named is RAW264.7. Nature of the data set: Anti-necroptotic activity in LZ-induced mouse RAW264.7 cells assessed as increase in cell viability at 5 to 10 uM preincubated with compound followed by LPS and Z-VAD-FMK stimulation and measured after 16 hrs by CellTiter-Lumi luminescent cell viability assay. The following applies: dose 5-10 µM. Format: functional, cell-based.

In data set [3] the test system is EOL1. Nature of the data set: Anti-necroptotic activity in TSZ-induced human EOL1 cells assessed as increase in cell viability at 2.5 to 20 uM preincubated with compound followed by Z-VAD-FMK, SM164 and TNFalpha addition and measured after 7 hrs by CellTiter-Lumi luminescent cell viability assay relative to control. It counts as functional. The following applies: dose 2.5-20 µM.

In data set [4] the test system is Mus musculus. The data set is described as follows: Anti-necroptotic activity in TNFalpha/Z-VAD-FMK induced SIRS male C57BL/6J mouse model assessed as reduction in IL-1beta in serum pre-administered orally with compound via gavage for 2 hrs followed by […] of Z-VAD-FMK stimulation for 15 mins with subsequent TNF-alpha stimulation for 1 hrs and re-current […] of Z-VAD-FMK stimulation and measured after 8 hrs post SIRS induction by ELISA. It counts as functional, organism-based. The following applies: dose 2.5-10 mg/kg, route po, time 10.0 hrs. A general note: ELISA stands for enzyme-linked immunosorbent assay.

The subject of data set [5] is Mus musculus. Nature of the data set: Anti-necroptotic activity in TNFalpha/Z-VAD-FMK induced SIRS male C57BL/6J mouse model assessed as reduction in IL6 in brain at 5 to 10 mg/kg, po pre-administered with compound via gavage for 2 hrs followed by […] of Z-VAD-FMK stimulation for 15 mins with subsequent TNF-alpha stimulation for 1 hrs and re-current […] of Z-VAD-FMK stimulation and measured after 8 hrs post SIRS induction by ELISA. It counts as functional, organism-based. The following applies: dose 5-10 mg/kg, time 10.0 hrs.

The nature of data set [6]: Tmax in Sprague-Dawley rat at 10 mg/kg, IG measured after 24 hrs by LC-MS/MS analysis. Format: ADME, organism-based. The following applies: in vivo, po.
Data set [7] is described as follows: Acute toxicity in male C57BL/6J mouse assessed as effect on creatinine level at 2 g/Kg, IG measured after 72 hrs. The following applies: in vivo, po, 2000 mg/kg.
The nature of data set [8]: Acute toxicity in male C57BL/6J mouse assessed as effect on AST level at 2 g/Kg, IG measured after 72 hrs. The following applies: in vivo, po, 2000 mg/kg.
The nature of data set [9]: Acute toxicity in male C57BL/6J mouse assessed as inflammatory cell infiltration in heart at 2 g/Kg, IG measured after 72 hrs by H and E staining based analysis. It counts as tissue-based. The following applies: in vivo, po, 2000 mg/kg.
Data set [10] can be described thus: Acute toxicity in male C57BL/6J mouse assessed as hemorrhage in spleen at 2 g/Kg, IG measured after 72 hrs by H and E staining based analysis. Format: tissue-based. The following applies: in vivo, po, 2000 mg/kg.
Data set [11] in a line: Acute toxicity in male C57BL/6J mouse assessed as structural changes in kidney at 2 g/Kg, IG measured after 72 hrs by H and E staining based analysis. The following applies: in vivo, po, 2000 mg/kg. It counts as tissue-based.
The nature of data set [12]: Acute toxicity in male C57BL/6J mouse assessed as inflammatory cell infiltration in intestine at 2 g/Kg, IG measured after 72 hrs by H and E staining based analysis. Format: tissue-based. The following applies: in vivo, po, 2000 mg/kg.
The target of data set [13] is T1, Receptor-interacting serine/threonine-protein kinase 1 (Homo sapiens) (UniProt Q13546).
T1 sequence (whole entry): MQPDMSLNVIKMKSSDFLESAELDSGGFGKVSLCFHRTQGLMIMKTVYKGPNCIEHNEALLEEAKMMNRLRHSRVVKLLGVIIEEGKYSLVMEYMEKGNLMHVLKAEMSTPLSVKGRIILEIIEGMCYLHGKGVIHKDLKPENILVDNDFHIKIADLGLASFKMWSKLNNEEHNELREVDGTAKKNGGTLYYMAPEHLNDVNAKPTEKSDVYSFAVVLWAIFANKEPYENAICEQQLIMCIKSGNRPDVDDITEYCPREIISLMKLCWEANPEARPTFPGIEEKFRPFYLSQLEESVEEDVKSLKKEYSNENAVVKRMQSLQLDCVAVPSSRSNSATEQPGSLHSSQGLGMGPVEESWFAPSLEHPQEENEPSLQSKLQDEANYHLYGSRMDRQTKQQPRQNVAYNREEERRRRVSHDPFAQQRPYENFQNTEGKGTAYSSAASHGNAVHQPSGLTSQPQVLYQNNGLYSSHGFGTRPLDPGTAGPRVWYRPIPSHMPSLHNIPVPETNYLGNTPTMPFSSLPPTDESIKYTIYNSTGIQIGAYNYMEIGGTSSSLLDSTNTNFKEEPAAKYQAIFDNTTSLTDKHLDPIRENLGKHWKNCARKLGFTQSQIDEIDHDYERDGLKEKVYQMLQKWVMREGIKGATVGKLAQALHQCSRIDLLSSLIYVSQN
Nature of the data set: Inhibition of RIPK1 phosphorylation at S166 residue in TSZ-induced human HT-29 cells at 10 uM preincubated with compound followed by Z-VAD-FMK, SM164 and TNFalpha stimulation and measured after 6 hrs by Western blot analysis. Format: cell-based.

The target in data set [14] is Receptor-interacting serine/threonine-protein kinase 3 (Homo sapiens) (UniProt Q9Y572). The data set is described as follows: Inhibition of RIPK3 phosphorylation at S227 residue in TSZ-induced human HT-29 cells at 10 uM preincubated with compound followed by Z-VAD-FMK, SM164 and TNFalpha stimulation and measured after 6 hrs by Western blot analysis. Format: cell-based. In general terms: In western blotting, separated proteins are transferred to a membrane and probed.

Data set [15] deals with T1, Receptor-interacting serine/threonine-protein kinase 1 (Homo sapiens). The data set is described as follows: Inhibition of RIPK1 phosphorylation in TSZ-induced human HT-29 cells at 10 uM preincubated with compound followed by Z-VAD-FMK, SM164 and TNFalpha stimulation and measured within 6 hrs by Western blot analysis relative to control. Format: cell-based.
Data set [16] has as its target Receptor-interacting serine/threonine-protein kinase 3 (Homo sapiens) (UniProt Q9Y572). The data set is described as follows: Inhibition of RIPK3 phosphorylation in TSZ-induced human HT-29 cells at 10 uM preincubated with compound followed by Z-VAD-FMK, SM164 and TNFalpha stimulation and measured within 6 hrs by Western blot analysis relative to control. It counts as cell-based.

The test system of data set [17] is HT-29. Nature of the data set: Downregulation of total RIPK3 protein level in TSZ-induced human HT-29 cells at 10 uM preincubated with compound followed by Z-VAD-FMK, SM164 and TNFalpha stimulation and measured after 6 hrs by Western blot analysis. It counts as functional, cell-based.
Data set [18] in a line: Inhibition of TSZ-mediated necrosome formation in human HT-29 cells at 10 uM preincubated with compound followed by Z-VAD-FMK, SM164 and TNFalpha stimulation and measured after 6 hrs by co-immunoprecipitation based Western blot analysis relative to control. It counts as functional.
In data set [19] the test system is HT-29. Nature of the data set: Downregulation of RIPK1 protein level in human HT-29 cells incubated for 9 hrs by Western blot analysis. Format: functional, cell-based. The following applies: dose 0.75-6 µM.
Data set [20] relates to HT-29. Nature of the data set: Downregulation of RIPK1 protein level in human HT-29 cells at 3 to 6 uM incubated for 9 hrs by Western blot analysis. Format: functional, cell-based. The following applies: dose 3-6 µM.
The test system of data set [21] is HeLa. The data set is described as follows: Inhibition of RIPK1 protein expression in RIPK3-deficient human HeLa cells at 6 uM preincubated with NH4Cl for 2 hrs followed by compound addition and measured after 9 hrs by Western blot analysis. Format: functional, cell-based.
Data set [22] has as its system HT-29. Nature of the data set: Downregulation of MLKL protein level in human HT-29 cell supernatant at 6 uM measured after 9 hrs by Western blot analysis. It counts as functional, cell-based.

Receptor-interacting serine/threonine-protein kinase 3 (Homo sapiens), sequence (Q9Y572 whole entry, looked up): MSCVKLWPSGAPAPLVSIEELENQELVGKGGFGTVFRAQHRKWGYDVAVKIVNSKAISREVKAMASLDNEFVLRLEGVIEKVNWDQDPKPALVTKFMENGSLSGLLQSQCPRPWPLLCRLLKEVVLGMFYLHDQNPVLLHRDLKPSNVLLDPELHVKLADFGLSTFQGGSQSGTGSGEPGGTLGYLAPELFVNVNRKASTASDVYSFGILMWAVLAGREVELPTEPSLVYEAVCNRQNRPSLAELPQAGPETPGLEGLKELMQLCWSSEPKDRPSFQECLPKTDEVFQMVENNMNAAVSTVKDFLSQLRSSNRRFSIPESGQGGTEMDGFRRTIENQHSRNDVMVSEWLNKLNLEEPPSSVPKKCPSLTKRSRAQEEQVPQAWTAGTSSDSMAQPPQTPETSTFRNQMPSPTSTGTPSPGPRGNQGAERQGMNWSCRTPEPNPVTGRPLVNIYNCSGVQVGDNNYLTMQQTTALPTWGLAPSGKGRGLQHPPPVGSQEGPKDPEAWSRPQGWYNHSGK

Broadly, the Tmax is the time at which the peak concentration occurs. A word on the inhibition: it is the percentage by which the read-out fell short of the control. Regarding `Cn1ccc(-c2ccc(NC(=O)[C@]34CCC(C)(C)C[C@H]3[C@H]3C(=O)C=C5[C@@]6(C)C=C(C#N)C(=O)C(C)(C)[C@@H]6CC[C@@]5(C)[C@]3(C)CC4)cc2)n1`, the Activity result was “Dose-dependent-effect” in [1]; “Active; Much Better Activity Observed” in data set [2]; 100% in [3]; “Dose-dependent-effect” in data set [4]; “Non-toxic” in data set [7]; “Non-toxic” in data set [8]. For the same compound, the Activity entry is “Non-toxic” in [9]; “Non-toxic” in [10]; “Non-toxic” in data set [11]; “Non-toxic” in data set [12]; “Dose-dependent-effect” in data set [19]; “Active; Significant Effect Observed” in [20]. In addition, the outcome in data set [5], in [17] and in data set [22] was Active. The Tmax in data set [6] amounted to 14 h. For the same compound, the inhibition result in data set [13], in data set [14] and in data set [21] was “Active” throughout. Besides, the inhibition in data set [15] and in [16] was 100% each time. In data set [18], the inhibition at 10 µM is 100%.
